The nature of series [1]: Cytotoxicity against human 63A9 cells at 25 uM by MTS assay. The settings on record: 63a9, 25 µM. The class given is cell-based. In general terms: Formazan colour is commonly taken as a measure of viable cells.
For series [2], the system named is Human immunodeficiency virus. Nature of the series: Antiviral activity against HIV H9/3B in HeLa P4/P5 cells after 48 hrs by vertical assay. The settings on record: Human immunodeficiency virus 1, H9/3B. The class given is functional, organism-based.
A short description of series [3]: Cytotoxicity against human HeLa P4/P5 cells up to 5 uM. The series is classed as cell-based.
The nature of series [4]: Inhibition of HIV Tat transactivation in human 63A9 cells by luciferase based reporter gene assay. The class given is cell-based, Human immunodeficiency virus.
[5] abbreviates: Human immunodeficiency virus 1, 63A9, read-out: IC50.

Usually IC50 stands for the concentration that gives 50% inhibition. With `CCC(C)c1c(O[C@H]2C[C@@H](O[C@H]3C[C@@H](O)[C@H](O)[C@@H](C)O3)[C@H](O)[C@@H](C)O2)cc2cc3c(c(O)c2c1O)C(=O)C(O[C@H]1C[C@@H](O[C@H]2C[C@@H](O[C@H]4C[C@@H](O[C@H]5C[C@@H](O)[C@H](O)[C@@H](C)O5)[C@H](O)[C@@H](C)O4)[C@@H](OC(C)=O)[C@@H](C)O2)[C@H](O)[C@@H](C)O1)C(C(OC)C(=O)C(O)C(C)O)C3` (stereo partly specified) [DURHAMYCIN A], the Activity entry in series [1] and in series [3] was “Non-toxic” throughout. Also, the half-maximal inhibitory concentration (IC50) in series [2] turned out to be 0.0116 µM; in series [4] (setting [5]), 0.0048 µM.

Take `CCC(C)c1c(O[C@H]2C[C@@H](O[C@H]3C[C@@H](O)[C@H](O)[C@@H](C)O3)[C@H](O)[C@@H](C)O2)cc2cc3c(c(O)c2c1O)C(=O)C(O[C@H]1C[C@@H](O[C@H]2C[C@@H](O[C@H]4C[C@@H](O)[C@H](O)[C@@H](C)O4)[C@@H](OC(C)=O)[C@@H](C)O2)[C@H](O)[C@@H](C)O1)C(C(OC)C(=O)C(O)C(C)O)C3` (stereo partly specified) [DURHAMYCIN B]: the IC50 in series [4] (setting [5]) was 0.048 µM.

Regarding `CCC(C)c1c(O)cc2cc3c(c(O)c2c1O)C(=O)C(O)C(C(OC)C(=O)C(O)C(C)O)C3` (stereo unspecified), the IC50 entry in series [4] (63a9) is “Not Active”.

These data come from ChEMBL document CHEMBL1156409, “Durhamycin A, a potent inhibitor of HIV Tat transactivation” (J Nat Prod, 2002).
